According to patent publication US10011813B2, “Methane oxidation methods and compositions” (California Institute of Technology, priority 2015, dated 2018):
In brackets after ≈: the same amount, converted by molar mass. Several values for one entry are separate records, joined by “and”; a condition that tells them apart may be missing. Equal values may be shown once.

Columns and labels:
methane seep sediment = assay: Control experiments without methane (sediment with AQDS under nitrogen); assay type: cell-based; conditions: AQDS 10 mM, after 3 weeks
Description: (§1) Quantification of reduced AQDS by iodometry. Reduced AQDS (2,6-AQH2DS) was quantified via iodimetric titration in the anaerobic chamber. A standard solution of ca. 20 mM KI3 was prepared as follows: iodine (254 mg, 2.0 mmol) and potassium iodide (1.66 g, 10 mmol) were dissolved in 100 mL DI water. After 2 days, the clear, dark solution was N2-sparged and brought into the anaerobic chamber. The exact concentration of the KI3 standard solution was quantified to be 19.5 mM via duplicate titration with sodium thiosulfate (exactly 101.5 mM, N2-sparged). Procedure for the quantification of reduced AQDS in the incubations: 1000 μL anaerobic assay solution centrifuged in the anaerobic chamber+200 μL anaerobic HEPES (1.0 M, pH=7.5)+KI3 standard solution as needed until color minimum, added in steps of 100 μL first, then in steps of 10 μL when closer to the equivalence point.
Control experiments without methane. […] To confirm that the methanotrophic microorganisms in the sediment had not been killed during the nitrogen+AQDS incubation, methane was later injected into these incubation bottles after 3 weeks.

[1] = test system: methane seep sediment (ANME archaea); assay: AOM rate measurement via 13C-methane (newly formed DIC) in methane seep sediment incubations; assay type: cell-based, ANME-2a and ANME-2c; conditions: 22.5° C.
[2] = test system: methane seep sediment (ANME archaea); assay: Quantification of reduced AQDS by iodometry in AOM incubations; assay type: cell-based, ANME-2a and ANME-2c; conditions: after 21-day incubation
Description: as §1

[3] = Quantification of AQDS solubility in the incubation medium; assay type: physicochemical
Description: Quantification of AQDS solubility in the incubation medium. Different regioisomers of AQDS (1,5-AQDS, 2,6-AQDS and 2,7-AQDS) were separately added to the modified artificial seawater described above, to a targeted final concentration of 25 mM. The suspensions were ultra-sonicated at room temperature to dissolve as much of the AQDS as possible. The tubes were kept at 4° C. or at 22.5° C. overnight. The tubes were centrifuged at 4° C. or 22.5° C. (16000 rcf, 30 min). The supernatant (300 μL) was mixed with 300 μL acetate (10.0 mM) as the internal standard and 100 μL deuterated water (99.9% D, Cambridge Isotope Laboratories) was added. The concentration of AQDS was obtained from integration of the ^1H-NMR spectra by comparison relative to the acetate standard.

[4] = test system: methane seep sediment (ANME archaea); assay: AOM rate measurement via 13C-methane (newly formed DIC) in methane seep sediment incubations; assay type: cell-based, ANME-2a and ANME-2c; conditions: for Rate relative to AOM with sulfate: 10 mM; for DIC formed: after 21-day incubation
Description: General description of methane oxidation measurements via ^13C-methane. Methane oxidation was quantified by determining the production of inorganic carbon (“CO2”). Accurate quantification of the concentration of inorganic carbon formed from methane oxidation is challenging due to 4 main reasons:
A defined amount of added DIC in artificial, buffered seawater was used with a low calcium concentration to prevent carbonate precipitation (see medium composition). As ^13CH4 was the only ^13C-enriched carbon source added, the newly formed ^13C-DIC must be derived from methane. For low methane oxidation rates (less than ca. 5% relative to sulfate as the oxidant or electron acceptor), however, enzyme-catalyzed isotope exchange between methane and DIC, needs to be taken into account, because it contributes to ^13C enrichment of the DIC without net methane oxidation, resulting in an overestimation of net methane oxidation. […] Details of both methods, the ^13CH4 experiments and the standard addition are described herein.
Incubation conditions for AOM rate measurement. Each incubation vial was set up with 1.0 cm^3 wet sediment (wet sediment=volume of sediment after allowing the sediment slurry settle for 48 h) in total slurry volume of […] as follows: Sterile serum vials were closed with butyl rubber stoppers (volume=12.9 ml after closing) and flushed with methane. 1.0 mL ^13CH4 (99% ^13C, Cambridge Isotope Laboratories, containing 0.05 vol % ^13CO2 as an impurity) was introduced anaerobically. 2.0 mL of artificial, anaerobic seawater containing 2.5× the target concentration of the corresponding electron acceptor was injected into the serum vial cooled on ice. For AQDS and 1,5-AQDS, this was a suspension corresponding to 25 mM (see TABLE 3).
The 1 L pyrex bottle with the sediment in the sulfate-free medium (1 part wet sediment in 3 parts of slurry volume) was vigorously shaken each time and 3.0 mL of slurry immediately removed and injected into the individual serum bottles. Each stoppered serum vial was supplemented with unlabeled methane (0.250 MPa overpressure: pressure gauge SSI Technologies, Inc., Media Gauge™) shaken and stored inverted at 4° C. (final headspace: 0.35 MPa methane, with ca. 4% ^13CH4). The exact fractional abundance of ^13C in the methane was quantified via ^1H-NMR spectroscopy for individual incubations.
AOM rate measurements (quantification of newly formed DIC based on ^13CH4). For ^13C-DIC analysis, 0.25 mL of the medium above the settled sediment in the microcosm was sampled with a disposable needle and syringe at each time point (same intervals for all experiments) and centrifuged (16000 rcf, 5 min). The supernatant was transferred into 0.6 mL eppendorf tubes, flash frozen in N2 (l), and stored at −20° C. until measurement. 150 μL of the thawed supernatant was then added to He-flushed vials containing 100 μL H3PO4 (85%). The resulting CO2 was analyzed for the isotopic enrichment (^13F(tn)) on a GC-IR-MS GasBench II (Thermo Scientific). The amount of DIC newly formed (Δ[DIC](tn), see FIG. 6B) was calculated from the measured ^13F (fractional abundance of ^13C), neglecting isotope effects on AOM according to Equation (1): Δ[DIC](tn)=[DIC](t0)*(^13F(tn)−^13F(t0))/(^13F(CH4)−^13F(tn)) (EQ. 1)

O=C1c2ccc(S(=O)(=O)O)cc2C(=O)c2ccc(S(=O)(=O)O)cc21 [AQDS, 9,10-anthraquinone-2,6-disulfonate]
reduced AQDS generated without methane (methane seep sediment): less than 1 mM | AOM rates compared with sulfate [1]: exceeded | AQH2DS (final concentration of reduced AQDS) ([2]; AQDS 10 mM + MoO4^2− 25 mM): 9.2 mM and 9.8 mM | AQH2DS (final concentration of reduced AQDS) ([2]; AQDS 10 mM): 8.6 mM and 9.6 mM | Solubility in the incubation medium ([3]; 4° C.): 0.9 mM (≈ 332 µg/mL) | Solubility in the incubation medium ([3]; 22.5° C.): 1.9 mM (≈ 700 µg/mL) | Rate relative to AOM with sulfate ([4]; no MoO4^2−): 74% | Rate relative to AOM with sulfate ([4]; with 25 mM MoO4^2−): 83% | DIC formed from 13C-methane per vial ([4]; 50 mmol AQDS (10 mM), no sulfate, 21-day incubation at 4° C.): approximately 12.5 mmol | DIC formed ([4]; AQDS 10 mM + MoO4^2− 25 mM): 2.59 mM and 2.82 mM | DIC formed ([4]; AQDS 10 mM, 4° C.): 2.39 mM and 2.64 mM | initial rates of AOM compared with sulfate ([4]; first 6 days, 4° C.): equivalent
